Test results: patent US20020072602A1, “Micronized mirtazapine” (priority 2000, published 2002)
“Also recorded” adds a separate entry of the source.

Assays:
[1] = cited from earlier work
[2] = dissolution of mirtazapine before and after micronization; assay type: physicochemical; details: compared to mirtazapine prior to micronization
From the text: FIG. 1 is a graph of the dissolution data of mirtazapine before and after micronization. FIG. 2 is a graph of the percent of dissolved mirtazapine before and after micronization. FIG. 3 is a graph of showing the dissolution time and standard deviations of the dissolution results before and after micronization. […] This is valuable improvement provides for more accurate dosing of mirtazapine.

SMILES | solubility in water [1] | dissolution profile [2]
CN1CCN2c3ncccc3Cc3ccccc3C2C1 (centres unmarked) [Mirtazapine, 1,2,3,4,10,14b-hexahydro-2-methyl-pyrazino [2,1-a]pyrido[2,3-c][2] benzazepine] | essentially insoluble in water | 
CN1CCN2c3ncccc3Cc3ccccc3C2C1 (centres unmarked) [micronized mirtazapine] |  | superior dissolution profile; also recorded: more stable and reproducible dissolution profile
